Each structure is given as a SMILES string.

Usually melting point stands for the temperature, or range, at which the solid turns liquid. Consider `O=c1c(Br)c(OCc2ccccc2)ccn1CCc1cccs1` [Example 30, 4-(benzyloxy)-3-bromo-1-(2-thien-2-ylethyl)pyridin-2(1H)-one], for which the melting point was in the range of 128 to 129.5 °C.

For `NCCc1cccc(Cn2ccc(OCc3ccc(F)cc3F)c(Br)c2=O)c1.O=C(O)C(F)(F)F`, the melting point fell in the range of 70 to 74 °C.

For `NC(=O)c1ccc(Cn2ccc(OCc3ccc(F)cc3F)c(Cl)c2=O)cc1` [Example 83, 4-[3-chloro-4-(2,4-difluorobenzyloxy)-2-oxo-2H-pyridin-1-ylmethyl]benzamide], the melting point lay in the range of 235 to 238 °C.

In turn, `Br.Cn1ccc(OCc2ccccc2)c(Br)c1=O` [Example 22, 4-(benzyloxy)-3-bromo-1-methylpyridin-2(1H)-one Hydrobromide] had a melting point of 105.3 to 105.6 °C.

Regarding `O=C(O)C(F)(F)F.O=c1c(Cl)c(OCc2ccc(F)cc2F)ccn1Cc1cccc2cnccc12`, the melting point was in the range of 235 to 238 °C.

Turning to `CN(C)Cc1ccc(Cn2ccc(OCc3ccc(F)cc3F)c(Br)c2=O)cc1` [Example 74, 3-bromo-4-(2,4-difluorobenzyloxy)-1-[(4-dimethylaminomethyl)benzyl]-1H-pyridin-2-one], the melting point was 111 to 113 °C.

For `CNCc1cccc(Cn2ccc(OCc3ccc(F)cc3F)c(Br)c2=O)c1` [Example 77, 3-Bromo-4-(2,4-difluorobenzyloxy)-1-[(3-methylaminomethyl)benzyl]-1H-pyridin-2-one], the melting point is 107 to 111 °C.

`CS(=O)(=O)c1cccc(Cn2ccc(OCc3ccc(F)cc3F)c(Cl)c2=O)c1` [Example 81, 3-chloro-4-(2,4-difluorobenzyloxy)-1-[(3-methanesulfonyl)benzyl]-1H-pyridin-2-one] showed a melting point of 155 to 157 °C.

In turn, `NC(=O)c1cccc(Cn2ccc(OCc3ccc(F)cc3F)c(Cl)c2=O)c1F` [Example 106, 3-[3-chloro-4-(2,4-difluorobenzyloxy)-2-oxo-2H-pyridin-1-ylmethyl]-2-fluoro-benzamide] returned a melting point of 252 to 254 °C.

For the compound `CC(C)NCc1ccc(Cn2ccc(OCc3ccc(F)cc3F)c(Cl)c2=O)cc1` [Example 80, 3-chloro-4-(2,4-difluorobenzyloxy)-1-[4-(isopropylaminomethyl)benzyl]-1H-pyridin-2-one], the melting point lay in the range of 146 to 151 °C.

In turn, `CC(C)(C)OC(=O)NCc1cccc(Cn2ccc(OCc3ccc(F)cc3F)c(Br)c2=O)c1` [Example 78, {3-[3-bromo-4-(2,4-difluorobenzyloxy)-2-oxo-2H-pyridin-1-ylmethyl]benzyl}carbamic Acid Tert-Butyl Ester] gave a melting point of 80 to 84 °C.

With `CC(C)(C)OC(=O)NCc1cccc(Cn2ccc(OCc3ccc(F)cc3)c(Br)c2=O)c1` [Example 70, {3-[3-bromo-4-(4-fluorobenzyloxy)-2-oxo-2H-pyridin-1-ylmethyl]benzyl}carbamic Acid Tert-Butyl Ester], the melting point was in the range of 136 to 138 °C.

`NC(=O)Cc1cccc(Cn2ccc(OCc3ccc(F)cc3F)c(Br)c2=O)c1` [Example 128, 2-{3-[3-Bromo-4-(2,4-difluorobenzyloxy)-2-oxo-2H-pyridin-1-ylmethyl]phenyl}acetamide] returned a melting point of 164 to 167 °C.

Compound `N#CCc1cccc(Cn2ccc(OCc3ccc(F)cc3F)c(Br)c2=O)c1` [Example 97, {3-[3-bromo-4-(2,4-difluorobenzyloxy)-2-oxo-2H-pyridin-1-ylmethyl]-phenyl}acetonitrile] registered a melting point of 120 to 121 °C.

Compound `N#Cc1ccccc1Cn1ccc(OCc2ccc(F)cc2F)c(Br)c1=O` [Example 98, 2-[3-bromo-4-(2,4-difluorobenzyloxy)-2-oxo-2H-pyridin-1-ylmethyl]benzonitrile] showed a melting point of 194 to 197 °C.

Regarding `Cl.O=c1c(Br)c(OCc2ccccc2)ccn1CC1CCNCC1` [Example 25, 4-(benzyloxy)-3-bromo-1-(piperidin-4-ylmethyl)pyridin-2(1H)-one Hydrochloride], the melting point was found to be 207.9 °C.

As to `NC(=O)c1cccc(Cn2ccc(OCc3ccc(F)cc3F)c(Br)c2=O)c1` [Example 102, 3-[3-bromo-4-(2,4-difluorobenzyloxy)-2-oxo-2H-pyridin-1-ylmethyl]benzamide], the melting point was 198 to 201 °C.

Take `Cc1c(OCc2ccc(F)cc2F)cc(C)n(C2CCCCC2)c1=O` [Example 132, 1-cyclohexyl-4-(2,4-difluorobenzyloxy)-3,6-dimethyl-1H-pyridin-2-one]: the melting point is 118 to 120 °C.

Consider `COC(=O)c1ccccc1Cn1ccc(OCc2ccc(F)cc2)c(Br)c1=O` [Example 72, methyl 2-[3-Bromo-4-(4-fluorobenzyloxy)-2-oxo-2H-pyridin-1-ylmethyl]benzoate], for which the melting point was 161 to 165 °C.

On to `O=c1cc(OCc2c(Cl)cccc2Cl)ccn1Cc1ccccc1` [Example 40, 1-benzyl-4-[2,6-(dichlorobenzyl)oxy]pyridin-2(1H)-one], for which the melting point lay in the range of 151.6 to 152 °C.

As for `NCc1cccc(Cn2ccc(OCc3ccc(F)cc3F)c(Br)c2=O)c1.O=C(O)C(F)(F)F`, the melting point was 80 to 84 °C.

The compound `O=c1c(Br)c(OCc2ccccc2C(F)(F)F)ccn1Cc1ccccc1` [Example 47, 1-benzyl-3-bromo-4-{[2-(trifluoromethyl)benzyl]oxy}pyridin-2(1H)-one] registered a melting point of 133.2 to 133.5 °C.

`Cl.O=c1c(Br)c(OCc2ccccc2)ccn1CC1CCCNC1` (stereo not shown): the melting point was in the range of 138.1 to 139.2 °C.

The compound `O=c1cc(OCc2ccccc2Cl)ccn1Cc1ccccc1` [Example 42, 1-benzyl-4-[(2-chlorobenzyl)oxy]pyridin-2(1H)-one] returned a melting point of 124.6 to 125 °C.

In the case of `O=c1c(Br)c(OCc2ccc(F)c(F)c2F)ccn1Cc1cccc(F)c1` [Example 108, 3-bromo-1-(3-fluorobenzyl)-4-(2,3,4-trifluorobenzyloxy)-1H-pyridin-2-one], the melting point fell in the range of 176 to 178 °C.

Turning to `CC(C)NCc1cccc(Cn2ccc(OCc3ccc(F)cc3F)c(Br)c2=O)c1` [Example 75, 3-bromo-4-(2,4-difluorobenzyloxy)-1-[3-(isopropylaminomethyl)benzyl]-1H-pyridin-2-one], the melting point was in the range of 109 to 110 °C.

Turning to `COC(=O)c1cccc(Cn2ccc(OCc3ccc(F)cc3F)c(Br)c2=O)c1` [Example 100, Methyl 3-[3-Bromo-4-(2,4-difluorobenzyloxy)-2-oxo-2H-pyridin-1-ylmethyl]benzoate], the melting point was 115 to 117 °C.

Regarding `O=c1c(Br)c(OCc2ccc(F)cc2)ccn1CC1CC1` [Example 59, 3-bromo-1-cyclopropylmethyl-4-(4-fluorobenzyloxy)-1H-pyridin-2-one], the melting point lay in the range of 139 to 141 °C.

In turn, `O=c1c(I)c(OCc2ccc(F)cc2F)ccn1Cc1cccc(F)c1` [Example 130, 4-(2,4-Difluorobenzyloxy)-1-(3-fluorobenzyl)-3-iodo-1H-pyridin-2-one] yielded a melting point of 164 to 167 °C.

Regarding `O=c1c(Cl)c(OCc2ccc(F)cc2F)ccn1Cc1ccc2c(c1)CCN2` [Example 88, 3-chloro-4-(2,4-difluorobenzyloxy)-1-(2,3-dihydro-1H-indol-5-ylmethyl)-1H-pyridin-2-one], the melting point lay in the range of 137 to 139 °C.

`O=c1c(Br)c(OCc2ccccc2Cl)ccn1Cc1ccccc1` [Example 43, 1-benzyl-3-bromo-4-[(2-chlorobenzyl)oxy]pyridin-2(1H)-one] returned a melting point of 143.3 to 145.5 °C.

The record behind these values is US20050176775A1, “Substituted pyridinones” (priority 2003, published 2005).
